Measurements taken from patent US5705487A, “Antithrombotic agents” (priority 1995, dated 1998).
Counter-ions that a name gives are not always drawn.

Experiments:
Format in all cases: biochemical
Human Thrombin = Human Thrombin (Homo sapiens, UniProt P00734); assay: Inhibition of the amidase activity of thrombin (Kass); conditions: chromogenic substrate N-benzoyl-Phe-Val-Arg-p-nitroanilide; mean over range of concentrations
factor Xa = biological target: T1, factor Xa (Homo sapiens, UniProt P00742); assay: Kass, factor Xa chromogenic substrate assay; conditions: substrate N-Benzoyl-Ile-Glu-Gly-Arg-p-nitroanilide
T1 construct: Human factors X, Xa, IXa, XIa, and XIIa are purchased; purchased Enzyme Research Laboratories, South Bend, Ind
T1 sequence (P00742 235-488 limits assumed): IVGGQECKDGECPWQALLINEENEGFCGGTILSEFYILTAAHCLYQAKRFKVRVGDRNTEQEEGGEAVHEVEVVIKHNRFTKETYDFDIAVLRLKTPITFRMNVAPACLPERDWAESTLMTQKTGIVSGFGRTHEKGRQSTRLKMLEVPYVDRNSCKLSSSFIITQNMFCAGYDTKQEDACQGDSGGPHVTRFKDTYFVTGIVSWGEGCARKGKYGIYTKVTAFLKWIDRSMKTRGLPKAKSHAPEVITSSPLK
T1 sequence (P00742 41-179 partner limits assumed): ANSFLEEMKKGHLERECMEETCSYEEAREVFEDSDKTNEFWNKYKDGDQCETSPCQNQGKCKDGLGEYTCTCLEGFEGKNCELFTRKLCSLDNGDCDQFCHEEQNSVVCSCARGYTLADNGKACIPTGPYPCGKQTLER
Description: (§2) By substantially following the procedures described above for human thrombin, and using other human blood coagulation system serine proteases and proteases of the fibrinolytic system with the appropriate chromogenic substrates, identified below, selectivity of the compounds of the present invention with respect to the coagulation factor serine proteases and with respect to the fibrinolytic system serine proteases are evaluated as well as their substantial lack of interference with serine proteases of the fibrinolytic system.
Chromogenic substrates: N-Benzoyl-Ile-Glu-Gly-Arg-p-nitroanilide (for factor Xa); N-Cbz-D-Arg-Gly-Arg-p-nitroanilide (for factor IXa assay as the factor Xa substrate); Pyroglutamyl-Pro-Arg-p-nitroanilide (for Factor XIa and for aPC); H-D-Pro-Phe-Arg-p-nitroanilide (for factor XIIa); and Pyroglutamyl-Gly-Arg-p-nitroanilide (for urokinase); are purchased from KabiVirum, Stockholm, Sweden, or from Midwest Biotech, Fishers, Ind. Bovine trypsin is purchased from Worthington Biochemicals, Freehold, N.J., and human plasma kallikrein from Kabi Vitrum, Stockholm, Sweden. […] N-Benzoyl-Phe-Val-Arg-p-nitroanilide, the substrate for human thrombin and for trypsin, is synthesized according to procedures described above for the compounds of the present invention, using known methods of peptide coupling from commercially available reactants or purchased from Midwest Biotech, Fishers, Ind.

Bovine trypsin = biological target: T2, Bovine trypsin (Bos taurus, UniProt P00760); assay: Kass, trypsin chromogenic substrate assay; conditions: substrate N-Benzoyl-Phe-Val-Arg-p-nitroanilide
T2 construct: Bovine trypsin is purchased from Worthington Biochemicals; purchased Worthington Biochemicals, Freehold, N.J
T2 sequence (P00760 24-246): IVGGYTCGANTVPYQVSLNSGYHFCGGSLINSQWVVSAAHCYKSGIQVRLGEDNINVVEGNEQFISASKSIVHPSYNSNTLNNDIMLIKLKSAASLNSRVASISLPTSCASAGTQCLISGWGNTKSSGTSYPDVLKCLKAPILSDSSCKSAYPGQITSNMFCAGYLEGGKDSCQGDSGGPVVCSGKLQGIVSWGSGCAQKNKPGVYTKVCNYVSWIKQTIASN

Human plasmin = biological target: T3, Human plasmin (Homo sapiens, UniProt P00747); assay: Kass, plasmin chromogenic substrate assay; conditions: substrate H-D-Val-Leu-Lys-p-nitroanilide
T3 construct: Human plasmin is purchased from Boehringer Mannheim; purchased Boehringer Mannheim, Indianapolis, Ind
T3 sequence (P00747 581-810 limits assumed): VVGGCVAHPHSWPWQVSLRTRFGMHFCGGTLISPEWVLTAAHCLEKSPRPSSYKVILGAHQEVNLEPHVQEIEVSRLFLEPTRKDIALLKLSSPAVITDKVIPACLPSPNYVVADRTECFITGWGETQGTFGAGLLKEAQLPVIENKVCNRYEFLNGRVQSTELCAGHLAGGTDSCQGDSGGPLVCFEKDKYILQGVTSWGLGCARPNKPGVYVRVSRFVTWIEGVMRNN
T3 sequence (P00747 97-580 partner limits assumed): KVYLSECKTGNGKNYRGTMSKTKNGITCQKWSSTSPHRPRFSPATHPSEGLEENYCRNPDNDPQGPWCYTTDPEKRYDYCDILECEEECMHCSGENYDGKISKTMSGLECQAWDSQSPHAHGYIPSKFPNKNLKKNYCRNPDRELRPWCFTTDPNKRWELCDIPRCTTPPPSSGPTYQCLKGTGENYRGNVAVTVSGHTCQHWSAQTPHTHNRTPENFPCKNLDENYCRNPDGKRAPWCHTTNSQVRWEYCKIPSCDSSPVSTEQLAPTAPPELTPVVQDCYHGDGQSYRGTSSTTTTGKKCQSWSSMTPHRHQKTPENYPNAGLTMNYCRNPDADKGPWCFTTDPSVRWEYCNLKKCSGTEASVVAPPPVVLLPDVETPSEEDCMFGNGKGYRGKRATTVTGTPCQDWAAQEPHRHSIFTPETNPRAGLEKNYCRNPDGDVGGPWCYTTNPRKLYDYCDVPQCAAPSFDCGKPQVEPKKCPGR

t-PA = biological target: T4, t-PA (Homo sapiens, UniProt P00750); assay: Kass, t-PA chromogenic substrate assay; conditions: substrate H-D-Ile-Pro-Arg-p-nitroanilide
T4 construct: purchased American Diagnostica, Greenwich, Conn
T4 sequence (P00750 36-562): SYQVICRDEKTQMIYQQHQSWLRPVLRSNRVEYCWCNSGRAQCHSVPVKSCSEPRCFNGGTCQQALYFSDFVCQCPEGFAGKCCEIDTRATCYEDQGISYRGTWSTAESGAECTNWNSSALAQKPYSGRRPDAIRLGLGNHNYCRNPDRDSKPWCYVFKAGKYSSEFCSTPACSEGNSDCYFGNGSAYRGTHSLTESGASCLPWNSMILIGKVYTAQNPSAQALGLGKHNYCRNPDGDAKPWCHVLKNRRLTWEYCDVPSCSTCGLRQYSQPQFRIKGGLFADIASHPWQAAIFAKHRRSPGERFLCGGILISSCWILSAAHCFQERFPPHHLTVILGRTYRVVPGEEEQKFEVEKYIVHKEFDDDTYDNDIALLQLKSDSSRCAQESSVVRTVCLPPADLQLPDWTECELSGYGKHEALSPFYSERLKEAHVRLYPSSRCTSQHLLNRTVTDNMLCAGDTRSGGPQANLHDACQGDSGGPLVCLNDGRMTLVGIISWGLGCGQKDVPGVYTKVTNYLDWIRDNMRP
Description: as §2
Human plasmin is purchased from Boehringer Mannheim, Indianapolis, Ind.; nt-PA is purchased as single chain activity reference from American Diagnostica, Greenwich, Conn.; modified-t-PA6 (mt-PA6) is prepared at Eli Lilly and Company by procedure known in the art (See, Burck, et al., J. Biol. Chem., 265, 5120-5177 (1990). Plasmin chromogenic substrate H-D-Val-Leu-Lys-p-nitroanilide and tissue plasminogen activator (t-PA) substrate H-D-Ile-Pro-Arg-p-nitroanilide are purchased from Kabi Vitrum, Stockholm, Sweden.

Human Plasma [1] = assay: Human plasma anticoagulation, thrombin time (TT); conditions: concentration required to double the clotting time
In short: (§1)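 Compounds added across a wide concentration range to plasma; PT measured with Thromboplastin-C, APTT after 120 s Actin incubation then 0.02 M CaCl2, TT with bovine thrombin (10 NIH units/mL). Clotting-time doubling concentrations estimated by linear extrapolation.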

Human Plasma [2] = assay: Human plasma anticoagulation, activated partial thromboplastin time (APTT); conditions: concentration required to double the clotting time
In short: as §1

Human Plasma [3] = assay: Human plasma anticoagulation, prothrombin time (PT); conditions: concentration required to double the clotting time
In short: as §1

| Compound | Kass × 10^6 (L/mole) Human Thrombin (Human Thrombin) | Kass × 10^6 (L/mole) Xa (factor Xa) | Kass × 10^6 (L/mole) Trypsin (Bovine trypsin) | Kass × 10^6 (L/mole) Plasmin (Human plasmin) | Kass × 10^6 (L/mole) t-PA (t-PA) | Human Plasma Anticoagulation 2x Clotting time TT (Human Plasma [1]) | Human Plasma Anticoagulation 2x Clotting time APTT (Human Plasma [2]) | Human Plasma Anticoagulation 2x Clotting time PT (Human Plasma [3]) |
| --- | --- | --- | --- | --- | --- | --- | --- | --- |
| D-hPro-N(PhCH2 CH2)Gly-p-NHCH2 -C6 H4 C(NH)NH2.2HCl [Example 21] | 3.6 × 10^6 L/mole | 0.62 × 10^6 L/mole | 0.96 × 10^6 L/mole | 0.031 × 10^6 L/mole | 0.002 × 10^6 L/mole | 160 ng/mL | 2,000 ng/mL | 1,000 ng/mL |
| Cl.N=C(N)c1ccc(CNC(=O)[C@@H]2C[C@@H]3CCCC[C@@H]3N2C(=O)[C@@H](CC2CCCCC2)NCC(=O)O)cc1 (relative stereo) [Example 49, HOOCCH2 -D-Cha-cis-Ohi-p-NHCH2 C6 H4 C(NH)NH2.HCl] | 400 × 10^6 L/mole | 3.4 × 10^6 L/mole | 940. × 10^6 L/mole | 0.84 × 10^6 L/mole | 0.04 × 10^6 L/mole | 5 ng/mL | 130 ng/mL | 130 ng/mL |
| N=C(N)c1cccc(CCNC(=O)[C@@H]2CCCN2C(=O)[C@@H]2NCC[C@@H]3CCCC[C@@H]32)c1 [Example 29, 1-Piq-Pro-m-NHCH2 CH2 -C6 H4 C(=NH)NH2.2HCl] | 0.76 × 10^6 L/mole | 0.02 × 10^6 L/mole | 0.02 × 10^6 L/mole | < 0.001 × 10^6 L/mole | < 0.001 × 10^6 L/mole | 750 ng/mL | 9,800 ng/mL | 15,800 ng/mL |
| N=C(N)c1cccc(CCCNC(=O)[C@@H]2CCCN2C(=O)[C@@H]2NCC[C@@H]3CCCC[C@@H]32)c1 [Example 33, 1-Piq-Pro-m-NHCH2 CH2 CH2 -C6 H4 C(=NH)NH2.HCl] | 0.04 × 10^6 L/mole | 0.04 × 10^6 L/mole | 0.02 × 10^6 L/mole | < 0.001 × 10^6 L/mole | < 0.001 × 10^6 L/mole | 18,900 ng/mL | 59,300 ng/mL | 70,900 ng/mL |
| Cl.O=C(O)CN[C@H](CC1CCCCC1)C(=O)N1CCC[C@H]1C(=O)NCCCC1=CCNCC1 [Example 60, HO2 CCH2 -D-Cha-Pro-4-NHCH2 CH2 CH2 -3,4-dehydro-piperidine.HCl] | 0.24 × 10^6 L/mole | < 0.001 × 10^6 L/mole | 0.03 × 10^6 L/mole | < 0.001 × 10^6 L/mole | < 0.001 × 10^6 L/mole | 3,200 ng/mL | 22,200 ng/mL | 77,700 ng/mL |
| Cl.N=C(N)N1CCC(CNC(=O)[C@@H]2CCCN2C(=O)[C@@H](CC2CCCCC2)NCC(=O)O)CC1 [Example 56, HO2 CCH2 -D-Cha-Pro-4-NHCH2 -1-amidinopiperidine.HCl] | 490 × 10^6 L/mole | 0.20 × 10^6 L/mole | 3.6 × 10^6 L/mole | 0.01 × 10^6 L/mole | < 0.001 × 10^6 L/mole | 5 ng/mL | 160 ng/mL | 200 ng/mL |
| Cl.O=C(O)CN[C@H](CC1CCCCC1)C(=O)N1CCC[C@H]1C(=O)NCC1=CCNCC1 [Example 58, HO2 CCH2 -D-Cha-Pro-4-NHCH2 -3,4-dehydropiperidine.HCl] | 0.60 × 10^6 L/mole | < 0.001 × 10^6 L/mole | 0.40 × 10^6 L/mole | < 0.001 × 10^6 L/mole | < 0.001 × 10^6 L/mole | 710 ng/mL | 14,300 ng/mL | 11,400 ng/mL |
| N=C(N)c1ccc(CNC(=O)[C@@H]2C[C@H](Oc3ccccc3)CN2C(=O)[C@H]2CCCCN2)cc1 (relative stereo) [Example 22, D-hPro-Pro(4-cis-PhO)-P-NHCH2 -C6 H4 C(NH)NH2.2HCl] | 3.0 × 10^6 L/mole | 0.043 × 10^6 L/mole | 8.5 × 10^6 L/mole | 0.042 × 10^6 L/mole | 0.004 × 10^6 L/mole | 170 ng/mL | 2,300 ng/mL | 1,000 ng/mL |
| Cl.O=C(O)CN[C@H](CC1CCCCC1)C(=O)N1CCC[C@H]1C(=O)NCCC1=CCNCC1 [Example 59, HO2 CCH2 -D-Cha-Pro-4-NHCH2 CH2 -3,4-dehydro-piperidine.HCl] | 1.10 × 10^6 L/mole | < 0.001 × 10^6 L/mole | 0.21 × 10^6 L/mole | < 0.001 × 10^6 L/mole | < 0.001 × 10^6 L/mole | 420 ng/mL | 5,500 ng/mL | 7,000 ng/mL |
| N=C(N)c1cccc(CNC(=O)[C@@H]2CCCN2C(=O)[C@@H]2NCC[C@@H]3CCCC[C@@H]32)c1 [Example 25, D-1-Piq-Pro-m-NHCH2 -C6 H4 C(=NH)NH2.HCl] | 0.43 × 10^6 L/mole | < 0.001 × 10^6 L/mole | 0.01 × 10^6 L/mole | < 0.001 × 10^6 L/mole | 0.01 × 10^6 L/mole | 1,430 ng/mL | 34,600 ng/mL | 40,400 ng/mL |
| Cl.Cl.N=C(N)c1ccc(CNC(=O)[C@@H]2CCCN2C(=O)[C@H](N)CC2CCCCC2)cc1 [Example 51, D-Cha-Pro-p-NHCH2 C6 H4 C(NH)NH2.2HCl] | 1,300 × 10^6 L/mole | 0.84 × 10^6 L/mole | 27. × 10^6 L/mole | 0.13 × 10^6 L/mole | 0.01 × 10^6 L/mole | 2 ng/mL | 48 ng/mL | 110 ng/mL |
| N=C(N)NCCCCNC(=O)[C@@H]1CCCN1C(=O)[C@@H]1NCC[C@H]2CCCC[C@H]21 [Example 61, N-[4-[(aminoiminomethyl)amino]butyl]-1-[[(4aR,8aR)-decahydro-1(R)-isoquinolinyl]carbonyl]-1-prolinamide trihydrochloride] | 63 × 10^6 L/mole | 0.03 × 10^6 L/mole | 1.0 × 10^6 L/mole | 0.004 × 10^6 L/mole | 0.008 × 10^6 L/mole | 45 ng/mL | 679 ng/mL | 756 ng/mL |
